For one experiment, the target named is T1, human 5HT2c receptor (Homo sapiens, UniProt P28335).
T1 construct: expressed in transfected cells; host or cells: Swiss 3T3 mouse cells
T1 sequence (P28335 33-458): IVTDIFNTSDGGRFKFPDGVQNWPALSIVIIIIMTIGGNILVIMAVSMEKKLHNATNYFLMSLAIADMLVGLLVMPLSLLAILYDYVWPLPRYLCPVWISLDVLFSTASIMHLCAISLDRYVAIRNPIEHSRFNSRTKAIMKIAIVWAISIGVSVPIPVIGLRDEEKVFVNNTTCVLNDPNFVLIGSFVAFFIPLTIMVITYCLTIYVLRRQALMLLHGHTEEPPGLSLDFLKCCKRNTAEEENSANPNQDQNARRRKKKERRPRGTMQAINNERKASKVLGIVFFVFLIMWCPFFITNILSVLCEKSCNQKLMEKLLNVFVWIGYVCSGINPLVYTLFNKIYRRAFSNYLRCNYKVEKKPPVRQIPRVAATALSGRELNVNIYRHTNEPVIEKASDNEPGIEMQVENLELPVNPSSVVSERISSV
Briefly: 5HT2c Binding Procedure (competition binding against 3H-5HT). Particulars: Swiss 3T3 mouse cells transfected with human 5HT2c receptor. Here is the method: Affinity of compounds at the serotonin 5HT2c binding site was determined by competition binding in Swiss 3T3 mouse cells (available from the American Type Culture Collection (ATCC), Manassas, Va.) transfected with the human 5HT2c receptor against 3H-5HT. The method was adapted from Roth et al., J. of Pharm. And Exp. Therap., 260(3), 1362-1365 (1992). Cells were grown in DMEM high glucose medium, harvested, homogenized, centrifuged, and resuspended in 50 mM Tris-HCL. They were incubated at 37° C. for 15 minutes, centrifuged, and then resuspended into assay buffer (50 mM Tris-HCl, 4 mM CaCl2, 0.1% ascorbic acid, and 100 μM pargyline at pH 7.7) at 100 volumes per gram. Assay tubes contained 25 μL of 10 nM ^3H-5HT (1 nM final conc.), and 25 μl of vehicle (assay buffer), blank (10 μM mianserin), or test compound (10× final volume). 200 μl of tissue homogenate was added to each tube, vortexed, and incubated for 30 minutes at 37° C. Samples were then rapidly filtered under vacuum with a Skatron™ cell harvester (available from Molecular Devices Corporation, Sunnyvale, Calif.) using GF/B filters presoaked in 0.5% polyethyleneimine (PEI), and washed with 2×5 mL cold 50 mM Tris-HCl. Filter mats were removed and counted in a Wallac Betaplate counter (available from PerkinElmer Life Sciences, Gaithersburg, Md.). […]

The next experiment has as its system conscious male rat. In words: Intracavernosal pressure (ICP) by telemetric recording in the conscious male rat. Type of experiment: in vivo. The text has this:
ICP Protocol: Intra cavernosal pressure (ICP) can be measured in the conscious rat by means of telemetric recording. A catheter is surgically implanted into the corpus cavernosum. The end of the catheter is linked to a device, which senses, processes, and transmits information digitally from within the animal. A receiver converts the radio-frequency signal from the implant to a digital pulse stream that is readable by a data collection system. The PC-based system collects telemetred data from the animal.
Surgery:—Induce and maintain general anaesthesia using 5% Isoflurane® in a carrier gas of 0.5 L/min oxygen and 1 L/min nitrous oxide to induce anaesthesia, reducing to 2% Isoflurane for maintenance anaesthesia. Administer 5 mg/kg subcutaneously (s.c.) Carprofen (Rimadyl® Large Animal Injection, 50 mg/ml, Pfizer Animal Health) at induction of anaesthesia, at end of day of surgery and on the morning of first day post-surgery to minimise pain and discomfort.
Implantation of corpus cavernosal probe:—Shave the skin of the ventral abdomen and extend to include the area around the penis and ventral scrotum. Clean and disinfect the shaved area. Place the rat in dorsal recumbency. Make a mid-line incision from the external base of the penis, running caudally for approximately 2 cm. Locate and expose the internal structure of the penis and identify the corpus cavernosum. Make a mid-line laparotomy, approximately 4 cm in length to access the abdominal cavity. Pierce the abdominal wall via the caudal incision with a suitable trocar and cannula, taking care not to damage any internal organs. Place the implant body in the abdominal cavity with the catheter orientated caudally and pass the catheter tip through the body wall via the preplaced cannula. Implant used is model TA11PA-C40, 8 mm catheter, with modified 3 mm tip (Data Sciences International Inc.). Secure the implant body to the abdominal wall using non-absorbable sutures and partially close the abdominal incision. Reflect the tip of the penis cranially and retract the caudal incision to optimise the surgical field. Carefully isolate approximately 10 mm of the internal structure of the penis from the surrounding tissue. Carefully reflect the corpus spongiosum to one side to give access to the corpus cavernosum. Access the corpus cavernosum using a modified over-the-needle catheter to puncture the tunica. Introduce the catheter tip via the preplaced catheter and advance until fully inserted. Carefully remove the access catheter and apply a suitable tissue adhesive to the insertion site. Observe for leakage. Close the subcutaneous fat layer in the caudal incision before closing with an appropriate absorbable suture. Instil approximately 5 ml of warm saline through the abdominal incision and complete closure of the mid-line incision. Close the skin incision with an appropriate absorbable suture.
Postoperative care:—Measure food and water intake and monitor bodyweight daily for at least 7 days post surgery, then 2-3 times weekly. Give Lectade® (Pfizer Animal Health) in drinking water for 3 days post surgery. House rats singly, and transfer to reverse light/dark conditions 5 days post surgery. Named Veterinary Surgeon (or Deputy) to issue a certificate of fitness to continue 2 days post surgery. Start using rats experimentally 7 days post surgery.
Experimental Procedure:—Perform experiment in room with reverse light/dark conditions. […] Take baseline reading of intra cavernosal pressure (ICP) for approximately 5 minutes. […]

Experiment [1] relates to anaesthetised rabbit model of erection. In words: Penile ICP in anaesthetised rabbit model of erection, combination with PDE5 inhibitor. Particulars: 5-10 mg/kg s.c. with selective PDE5 inhibitor 1 mg/kg i.v. Type of experiment: in vivo. As to the method: The effects of concomitant administration of compound(s) of formula (I) in combination with a PDE5 inhibitor on the penile intracavernosal pressure (ICP) in an anaesthetised rabbit model of erection can be measured according to the following protocol.
Male New Zealand rabbits (˜2.5 kg) are pre-medicated with a combination of Medetomidine (Domitor®) 0.5 ml/kg inramuscularly (i.m.), and Ketamine (Vetalar®) 0.25 ml/kg i.m. whilst maintaining oxygen intake via a face mask. The rabbits are tracheotomised using a Portex™ uncuffed endotracheal tube 3 ID (internal diameter), connected to ventilator and maintained at a ventilation rate of 30-40 breaths per minute, with an approximate tidal volume of 18-20 ml, and a maximum airway pressure of 10 cm H2O. Anaesthesia was then switched to Isoflurane® and ventilation continued with O2 at 2 liters/min. The right marginal ear vein was cannulated using a 23G or 24G catheter, and Lactated Ringer solution perfused at 0.5 ml/min. […]
The left groin area of the rabbit was shaved and a vertical incision was made approximately 5 cm in length along the thigh. […] Systolic and diastolic pressures were measured, and the mean arterial pressure calculated using the formula (diastolic×2+systolic)÷3. Heart rate was measured via the pulse oxymeter and Po-ne-mah data acquisition software system (Ponemah Physiology Platform, Gould Instrument Systems Inc). […]

In a further experiment the target is T2, rat 5HT2A receptor (Rattus norvegicus, UniProt P14842).
T2 construct: expressed in transfected cells; host or cells: NIH 3T3 mouse cells
T2 sequence (P14842 whole entry): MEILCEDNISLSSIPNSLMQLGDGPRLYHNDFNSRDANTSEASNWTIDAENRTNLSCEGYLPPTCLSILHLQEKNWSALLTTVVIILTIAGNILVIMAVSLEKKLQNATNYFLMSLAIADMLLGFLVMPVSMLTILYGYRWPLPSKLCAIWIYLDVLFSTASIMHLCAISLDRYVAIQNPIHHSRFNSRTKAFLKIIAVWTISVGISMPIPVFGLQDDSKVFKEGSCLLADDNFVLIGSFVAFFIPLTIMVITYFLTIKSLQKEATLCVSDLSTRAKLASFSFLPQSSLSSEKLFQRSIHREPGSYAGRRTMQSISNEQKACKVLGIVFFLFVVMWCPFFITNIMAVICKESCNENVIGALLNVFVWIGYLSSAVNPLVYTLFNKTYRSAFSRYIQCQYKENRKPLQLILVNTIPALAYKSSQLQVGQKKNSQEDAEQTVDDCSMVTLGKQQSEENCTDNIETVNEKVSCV
Briefly: 5HT2A Binding Procedure (competition binding using 125I-DOI). The following applies: NIH 3T3 mouse cells transfected with rat 5HT2A receptor, read-out: Ki values for 5HT2a binding (upper end of range). Here is the method:
Affinity of compounds at the serotonin 5HT2A binding site was determined by competition binding in NIH 3T3 mouse cells transfected with the rat 5HT2A receptor using 125I-DOI. The method was adapted from Leonhardt et al., Molecular Pharmacology, 42, 328-335 (1992). Frozen cell paste was homgenized in 50 mM tris-HCl buffer pH 7.4 containing 2 mM MgCl2 using a Polytron and centrifuged at 45000×g for ten minutes. The resulting pellet was resuspended in fresh ice-cold 50 mM tris-HCl buffer pH 7.4 containing 2 mM MgCl2 using a Polytron™ and centrifuged again at 45000×g for ten minutes. The final pellet was resuspended in 50 mM tris-HCl buffer pH 7.4 containing 2 mM MgCl2 at a concentraion of 5 mg/mL. Wells in a 96 well plate contained 25 μL of 0.7 nM 125I-DOI (70 pM final conc.), and 25 μL of vehicle (assay buffer), blank (10 μM cinanserin), or test compound (10× final volume). […] Filter mats were removed, dried and counted in a Wallac Betaplate counter. Concentration-response curves of the % inhibition of specific binding and log concentration by test compounds were used to determine the IC50 for each compound and the Ki value calculated based on the Cheng-Prusof equation (Ki=IC50/(1+(L/Kd)), where L is the concentration of the radioligand used in the binding assay and the Kd was based on previous saturation studies with the radioligand.

Consider three molecules from patent US6894050B2, “5-HT receptor ligands and uses thereof” (Pfizer Inc., priority 2001, dated 2005).

Molecules are shown by their SMILES. Where a name gives a salt, the structure may show the parent alone.

Broadly, the Ki is the equilibrium dissociation constant of an inhibitor or competing ligand from its target. Take `c1ccc(COc2cncc(N3CCNCC3)n2)nc1` [Example 1-AW, 6′-(Pyridin-2-ylmethoxy)-3,4,5,6-tetrahydro-2H-[1,2′]bipyrazinyl hydrochloride salt]: the Ki at human 5HT2c receptor was determined as 0.587 µM.

For `Fc1ccc(F)c(COc2cncc(N3CCNCC3)n2)c1` [Example 1-M, 6′-(2,5-Difluoro-benzyloxy)-3,4,5,6-tetrahydro-2H-[1,2′]bipyrazinyl], in the experiment with conscious male rat (5 mg/kg s.c.), the “number of erectogenic events in a 15 minute test period” value is on record as “significantly increased”. In addition, the “number of erectogenic events induced at 120 minutes after dosing” value in the experiment with conscious male rat (120 minutes after dosing) is reported as “no difference”. Moreover, the “proerectile effects in the conscious rat” value in the experiment with conscious male rat (conscious rat) is given as “induced proerectile effects”. Besides, in the experiment on conscious male rat (conscious rat, 5 mg/kg s.c., 15 minute period, 60 min post injection), the “Number of erectogenic events @ 60 min” value came to 1.5 ± 0.3. In the experiment with conscious male rat (conscious rat, 5 mg/kg s.c., 15 minute period, 120 min post injection), the “Number of erectogenic events @ 120 min” value came out at 1.3 ± 0.5. For the same molecule, in experiment [1], the “effects on ICP of concomitant administration with PDE5 inhibitor” value is listed as “beneficial effects on ICP”.

`Cc1cccc(CNc2cncc(N3CCNCC3)n2)n1` [Example 4-R, (6-Methyl-pyridin-2-ylmethyl)-(3,4,5,6-tetrahydro-2H-[1,2′]bipyrazinyl-6′-yl)-amine fumarate salt]: the Ki on rat 5HT2A receptor stood at 1 µM.
